Source: patent EP3409671B1, “ISOTHIAZOLE DERIVATIVES AS GPR120 AGONISTS FOR THE TREATMENT OF TYPE II DIABETES” (Janssen Pharmaceutica NV, priority 2014, dated 2015)

Legend:
C57b1/6J Mice = experiment: GPR120 C57bl6 Mouse IPGTT; assay type: in vivo; set-up: C57 IPGTT 10mg/kg: unit not given here; conditions: for C57 IPGTT 3mg/kg: 3mg/kg dosed 30 minutes prior to glucose IP 1.5g/kg; for C57 IPGTT 10mg/kg: 10mg/kg dosed 30 minutes prior to glucose IP 1.5g/kg
Method: Male, C57b1/6J Mice were ordered in at 8 weeks of age from Jackson Labs. Individual mice weighed anywhere in the range of 25-30 grams on study day. The mice were fasted, with removal of food occurring at 7am on the morning of the study. Animals were moved into the room at 10:00am, to give them time to acclimate. Glucose (insulin syringes) was drawn up either the night before or the morning of the study. Glucose was dosed (IP) at 1.5g/kg at 7.5ml/kg (20% glucose straight TEKNOVA, 250ml sterile bottle w/ catalogue number G0525). Test compounds were kept spinning and were only drawn into the syringes prior to study commencement. Animals were bled via tail snip to determine basal glucose levels prior to dosing of treatments. An Ascensia BREEZE Blood Glucose Monitoring System by Bayer (using unique 10-test disks) was used for determining glucose levels. The bleeds started at approximately 12:45pm and dosing started, at 1-minute intervals, immediately after. All groups were dosed 30 minutes prior to glucose administration at a dose volume of 10ml/kg (the dose volume was calculated separately for each individual animal). Thirty minutes after the first dose animals were bled again for a second baseline, or T=0, and immediately dosed with glucose via an i.p. injection. The exact dose volume for glucose was also calculated separately for each individual animal. Glucose measurements were taken at -30min prior to compound dose, at t=0 (immediately prior to glucose dose), and at 15, 30, 45, 60, 90min post glucose dose.
Glucose values were entered into an Excel sheet and graphed in GraphPad Prism. The following were calculated from Prism: Change from -30 to 0 BSLN Glucose, Raw Glucose AUC -30 to 90min, Delta Glucose AUC -30 to 90min, Raw Glucose AUC 0 to 90min, Delta Glucose AUC 0 to 90min.
Representative compounds of the present disclosure were tested according to the procedures as described in Biological Example 4, above with results as listed in Table 3, below. […] Where a compound was tested more than once, each result is listed individually. Table 3: GPR120 C57bl6 Mouse IPGTT OGTT Results

Human GPR120 short form [1] = biological target: T1, Human GPR120 short form (Homo sapiens, UniProt Q5NUL3); experiment: Human GPR120 Calcium Flux Assay, Procedure Calcium B; assay type: cell-based; conditions: HEK-293 cells expressing Human GPR120 short form, FLIPR, 4200 cells/well; read-out: GPR120 Ca^2+ Assay B EC50
T1 construct: expressed in transfected cells
T1 sequence (Q5NUL3 1-361): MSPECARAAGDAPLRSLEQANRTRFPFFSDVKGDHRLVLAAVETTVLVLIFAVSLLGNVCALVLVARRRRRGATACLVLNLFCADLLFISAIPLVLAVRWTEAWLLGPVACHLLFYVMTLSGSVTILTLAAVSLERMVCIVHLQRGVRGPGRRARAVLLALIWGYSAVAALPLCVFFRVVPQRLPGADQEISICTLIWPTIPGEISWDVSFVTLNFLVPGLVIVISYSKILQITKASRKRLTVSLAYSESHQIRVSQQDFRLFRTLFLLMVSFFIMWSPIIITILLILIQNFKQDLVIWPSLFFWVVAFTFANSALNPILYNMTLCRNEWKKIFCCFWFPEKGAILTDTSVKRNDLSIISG
Excerpt: (§1) This in vitro assay serves to assess test compound agonist activity against the short splice variant (SVS with Accession number NM_001195755.1 confirmed by sequencing data) of the GPR120 receptor. The Human Short splice variant #2 (NM_001195755.1) is missing an in-frame coding exon compared to variant 1 (the Human Long splice variant NM_181745.3), resulting in a shorter isoform (GPR120-S) lacking a 16 aa protein segment compared to isoform GPR120-L. The assay platform utilizes HEK-293 cells stably transfected to express the Human GPR120 short form. These cells are first loaded with the Ca^+2 sensitive dye, Fluo-4 NW. Upon stimulation, intracellular released Ca^+2 can bind to the dye and alter its fluorescence intensity. This increase in fluorescence signal, and thus the flux in intracellular [Ca^2+], is detected and quantitated by fluorescence imaging using a FLIPR reader. The effect of the agonist is measured as a function of concentration and used to calculate an EC50 based upon a response curve.
In this procedure 4200 cells/well were employed.
(§2) A Human GPR120 clone (Genbank accession number NM _001195755.1) was placed into the pcDNA3.1 mammalian expression vector carrying the neomycin resistance gene. A stable mammalian cell was generated by placing the above clone into a HEK293 background. Clonal cells responding to long chain fatty acids had expression levels of GPR120 confirmed by RT-qPCR. Human HEK-GPR120 cells were cultured in Dulbecco's Modified Eagle's Medium (DMEM)/F12 medium supplemented with 10% fetal bovine serum (FBS), 1% L-Glutamine and 1% penicillin/streptomycin and 0.5 mg/ml G-418. Cells were split 2 times a week to keep the cells in the log-phase growth.
(§3) In preparation for the assay, HEK cells stably transfected with Human GPR120 (2.5K cells per well in 25uL growth medium) were seeded into 384-well plates and then incubated overnight (37°C, 5% CO2). The next day, the media was changed to 20 µL assay buffer and the cell starved for 1h at 37°C. […]
(§4) The assay was performed on a FLIPR plate reader using the following parameters. Baseline was read for 10 seconds at 1 sec intervals. The program was set to transfer 10µL of ligand from compound plate to cell plate after baseline reading. […] After compound addition, each well was read for 300 sec, with measurements collected at 1 sec intervals.
(§5) The kinetic data from the FLIPR was based upon a 5 minute window for data collection. The fluorescence of each sample well was used for individual calculations of a normalized RFU value, which was defined as maximum response minus the minimum response. The normalized fluorescence reading (RFU) was calculated as follows: RFU = Fmax−Fmin [formula] […]

Human GPR120 short form [2] = biological target: T1, Human GPR120 short form; experiment: Human GPR120 Calcium Flux Assay, Procedure Calcium A; assay type: cell-based; conditions: HEK-293 cells expressing Human GPR120 short form, FLIPR, 2500 cells / well; read-out: GPR120 Ca^2+ Assay A EC50
Excerpt: as §1
In this procedure 2500 cells / well were employed.
as §2, §3, §4, §5

SMILES: Cc1c(CCC(=O)O)ccc(OCc2c(-c3ccc(Cl)cc3)nsc2C(F)(F)F)c1C [Cpd 142, 3-(4-((3-(4-chlorophenyl)-5-(trifluoromethyl)isothiazol-4-yl)methoxy)-2,3-dimethylphenyl)propanoic acid]
- C57 IPGTT 3mg/kg (C57b1/6J Mice): -34
- C57 IPGTT 10mg/kg (C57b1/6J Mice): -61

SMILES: COC(=O)CCc1cc(F)c(OCc2c(-c3ccc(Cl)cc3F)nsc2C(F)(F)F)c(F)c1 [Cpd 263, Methyl 3-(4-{[3-(4-chloro-2-fluorophenyl)-5-(trifluoromethyl)isothiazol-4-yl]methoxy}-3,5-difluorophenyl)propanoate]
- EC50 (Human GPR120 short form [1]): > 5 µM

SMILES: O=C(O)CCc1cc(F)c(OCc2c(C3CCCC3)nsc2C(F)(F)F)c(F)c1 [Cpd 71, 3-(4-[[3-cyclopentyl-5-(trifluoromethyl)-1,2-thiazol-4-yl]methoxy]-3,5-difluorophenyl)propanoic acid]
- C57 IPGTT 3mg/kg (C57b1/6J Mice): -14

SMILES: CCc1ccc(-c2snc(Cl)c2COc2ccc(CCC(=O)O)c(C)c2C)cc1 [Cpd 85, 3-(4-[[3-chloro-5-(4-ethylphenyl)-1,2-thiazol-4-yl]methoxy]-2,3-dimethylphenyl)propanoic acid]
- C57 IPGTT 3mg/kg (C57b1/6J Mice): -29
- C57 IPGTT 10mg/kg (C57b1/6J Mice): -48

SMILES: O=C(O)CCc1cc(F)c(OCc2c(-c3ccc(Cl)cc3)nsc2C(F)(F)F)c(F)c1 [Cpd 79, 3-(4-[[3-(4-chlorophenyl)-5-(trifluoromethyl)-1,2-thiazol-4-yl]methoxy]-3,5-difluorophenyl)propanoic acid]
- C57 IPGTT 10mg/kg (C57b1/6J Mice): -60

SMILES: O=C(O)CCc1cc(F)c(OCc2c(-c3ccc(F)c(F)c3)nsc2C(F)(F)F)c(F)c1 [Cpd 129, 3-(4-((3-(3,4-difluorophenyl)-5-(trifluoromethyl)isothiazol-4-yl)methoxy)-3,5-difluorophenyl)propanoic acid]
- EC50 (Human GPR120 short form [2]): 0.125 µM

SMILES: CCc1ccc(-c2nsc(C(F)(F)F)c2COc2c(F)cc(CCC(=O)O)cc2F)cc1 [Cpd 70, 3-(4-[[3-(4-ethylphenyl)-5-(trifluoromethyl)-1,2-thiazol-4-yl]methoxy]-3,5-difluorophenyl)propanoic acid]
- C57 IPGTT 30mg/kg (C57b1/6J Mice; 30mg/kg dosed 30 minutes prior to glucose IP 1.5g/kg): -88

SMILES: OCCCc1cc(F)c(OCc2c(-c3ccc(Cl)cc3)nsc2C(F)(F)F)c(F)c1 [Cpd 100, 3-(4-[[3-(4-chlorophenyl)-5-(trifluoromethyl)-1,2-thiazol-4-yl]methoxy]-3,5-difluorophenyl)propan-1-ol]
- C57 IPGTT 10mg/kg (C57b1/6J Mice): -42

SMILES: Cc1ccccc1-c1snc(Cl)c1COc1cc(C(F)(F)F)c(CCC(=O)O)cc1F [Cpd 246, 3-(4-((3-chloro-5-(o-tolyl)isothiazol4-yl)methoxy)-5-fluoro-2-(trifluoromethyl)phenyl)propanoic acid]
- EC50 (Human GPR120 short form [2]): 2.35 µM

SMILES: O=C(O)CCc1ccc(OCc2c(-c3ccc(Cl)cc3)nsc2C(F)(F)F)c(F)c1F [Cpd 106, 3-(4-[[3-(4-chlorophenyl)-5-(trifluoromethyl)-1,2-thiazol-4-yl]methoxy]-2,3-difluorophenyl)propanoic acid]
- C57 IPGTT 10mg/kg (C57b1/6J Mice): -34
